From patent US20240108753A1, “NUCLEIC ACID DELIVERY” (NUNTIUS THERAPEUTICS LIMITED, priority 2021, published 2024)
Where a SMILES comes first, the peptide text is derived from it. Where no end group is shown, it is not given here.

What was measured:
[1] = test system: clathrin mediated endocytosis, caveolae-mediated endocytosis and micropinocytosis; test: Endocytic experiments: transfection in the presence of uptake inhibitors; type: cell-based; details: inhibitor added to G1,2,3-RL-D/D-DNA nanoparticle transfection
Protocol: The uptake mechanism of the composition of the invention was investigated. Chlorpromazine was used to inhibit clathrin mediated endocytosis. Genistein and Rottlerin were also used; these agents have been reported to inhibit caveolae-mediated endocytosis and micropinocytosis respectively.
Cells were preincubated with each inhibitor (chlorpromazine, genstein and rottlerin) for 30 min at 37 C.
Subsequently transfection was performed for a further 4 h at 37 C as described in the transfection section, in the presence of the inhibitor.

HeLa cells [2] = test: Cell viability after transfection (crystal violet); type: cell-based, human; details: following transfection with DNA formulations
Protocol: Cell viability. Cells were transfected as described in ‘Transfection Procedure’. Following 24 hours of transfection, the medium was removed and the cells were washed twice with PBS. Afterwards, the cells were dried for 1 hour at room temperature (to allow permeation of the nuclear stain). Crystal violet solution (50 μL of stock solution supplied by Sigma-Aldrich) was added to the cells. They were incubated for 15 min at room temperature. After washing with distilled water (5 times), the cells were dried for 30 min at room temperature. Then, MeOH (200 μL) was added and the suspension was incubated for 1 hour at room temperature. The relative amount of the crystal violet stain retained by viable cells was determined by the absorbance of the methanolic solution at 550 nm.

[3] = cited from earlier work
[4] = Hydrodynamic size, polydispersity index and zeta potential of dendrimer, lipid and mRNA complexes; type: physicochemical; details: DOTMA/DOPE w/w 10:1 to mRNA; for Hydrodynamic size: dendrimer, lipid and mRNA complexes
Protocol: The hydrodynamic size, polydispersity index and Zeta potential was determined for a set of the dendrimers disclosed in Tables 1 and 2.

mice tissue [5] = test: In vivo luciferase DNA expression assays; details: intravenous; DOTMA/DOPE w/w=1:1 to DNA; NP 20:1; 24 h
Protocol: Mice were injected with the dendrimers, lipid and DNA formulations, and tissues were isolated and snap-frozen for luciferase expression analysis 24 h and 48 h post intravenous and intramuscular injection respectively.
The tissues were homogenised with 1× reporter lysis buffer supplemented with Protease Inhibitors. Depending on the tissues, 1.5 to 3 times of the lysis buffer was used for the tissue homogenisation. Following the homogenisation, the lysates were centrifuged and the supernatants were used for assaying luciferase expression and protein content. The luciferase expression level was measured with a luminometer using a luciferase assay kit (Promega), following the manufacturer's instructions. The protein content was measured using a Biorad protein assay kit at 595 nm absorbance, following the manufacturer's instructions.
Mice were injected with the dendrimers, lipid and DNA formulation prepared for detection of luciferase expression post injection. Tissues were isolated and snap-frozen for luciferase expression analysis 24 h and 48 h post intravenous and intramuscular injection respectively.

C2C12 cells = test: In vitro DNA (luciferase reporter) delivery; type: cell-based; details: N:P=8:1, DOTMA/DOPE w/w=1:1 to DNA
Source text: FIG. 25. In vitro DNA delivery to HeLa and C2C12 cells. HeLa cells were transfected with either DNA alone, G1,2,3-RL (N:P=5:1) and DOTMA/DOPE (at a w/w=1:1 to DNA) with DNA and G1,2,3-RL (N:P=5:1) and DOPG/DOPE (at a w/w=1:1 to DNA) with DNA (top panel). C2C12 cells (a muscle-derived cell line) were transfected with either DNA alone, polyethylenimine with DNA, G1,2-RL, 3-LR (N:P=8:1) and DOTMA/DOPE (at a w/w=1:1 to DNA) with DNA and NTX2 (N:P=8:1) and DOTMA/DOPE (at a w/w=1:1 to DNA) with DNA (bottom panel). The DNA used in both experiments encodes a luciferase reporter gene. NTX2 is a G1,2-RL, 3-LR dendrimer conjugated to a muscle targeting peptide ASSLINA ((LR)8(KRL)4(KRL)2KGSCGAASSLNIA(Acp)-NH2).
NTX2 is a G1,2-RL, 3-LR dendrimer conjugated to a muscle targeting peptide ASSLINA ((LR)8(KRL)4(KRL)2KGSCGAASSLNIA(Acp)-NH2).

HeLa cells [6] = test: mRNA (eGFP) transfection with peptide dendrimers and DOTMA/DOPE in full growth medium; type: cell-based, human; details: HeLa; full growth medium; DOTMA/DOPE w/w 10:1 to mRNA; relative to G1,2-RL, 3-LR
Protocol: FIG. 28. mRNA transfection of the peptide dendrimers with lipid system in vitro. […] The mRNA used expressed an eGFP reporter gene. Following a 24 hour transfection, the cells were harvested to assay the eGFP expression. The eGFP expression was normalised with the total amount of protein of each transfection. The gene expression level was calculated by normalising the transfection value of the G1,2-RL, 3-LR, DOTMA/DOPE & mRNA treated cells. 1st, 2nd and 3rd generation dendrimers with varying cores and 1st, 2nd, and 3rd generation peptide motifs can transfect cells with mRNA effectively under the tested conditions.
FIG. 29. mRNA transfection of the peptide dendrimers with lipid system in vitro. HeLa cells were transfected with mRNA alone or mRNA with peptide dendrimers and DOTMA/DOPE (w/w=10:1 to mRNA). The N:P ratio of G1,2-RL,3-LR was at 0.16:1 while the N:P ratios of all other dendrimers at 8:1. The mRNA used expressed an eGFP reporter gene. Following a 24 hour transfection, the cells were harvested to assay the eGFP expression. The eGFP expression was normalised with the total amount of protein of each transfection. The gene expression level was calculated by normalising the transfection value of the G1,2-RL, 3-LR, DOTMA/DOPE & mRNA treated cells. 1st, 2nd and 3rd generation dendrimers with varying cores and 1st, 2nd, and 3rd generation peptide motifs can transfect cells with mRNA effectively under the tested conditions.
The effect on the number of generations of dendrimers on mRNA delivery was studied by transfecting HeLa cells in full growth medium conditions.

mice tissue [7] = test: In vivo luciferase mRNA expression assays; details: intravenous, NP 0.15:1, DOTMA/DOPE w/w=10:1 to mRNA, 6 hours
Protocol: Peptide dendrimers were diluted to a respective concentration and mixed with mRNA for a desired NP ratio such as NP=0.15:1 or 8:1. The solution was incubated in room temperature for 10 mins. Lipid such as DOTMA/DOPE was diluted to a respective concentration and mixed with the dendrimer-mRNA complexes for a desired NP ratio such as NP-4.7:1. The solution was incubated in room temperature for 20 mins. When required, the solution would be further diluted before injection.
All animal procedures conducted in our studies complied with UK laws and were inclusive of ethics approval. Female CD-1 mice (n=39) aged 6-8 weeks left to habituate for 1-week upon their arrival. All mice were weighed, and the formulations were delivered intravenously (100 μl) via the tail vein using 30G insulin syringes (BD biosciences).
All mice were imaged 6 hours post injection. BLI was performed using an IVIS Lumina II (Perkin Elmer) Imaging system. Mice were administered D-luciferin (30 mg/mL, XenoLight, Perkin Elmer) at a dose of 150 mg/kg. Mice were anaesthetised 6 mins after receiving D-luciferin in a chamber with 5% isoflurane and then placed on a heated imaging platform while being maintained on 2.5% isoflurane. Mice were imaged 10 min post administration of D-luciferin with an exposure time set to ensure the signal acquired was within an effective detection range (open filter, binning 8, f-stop 1). Bioluminescence signal was quantified by measuring photon flux (photons/s) in the defined region of interest (ROI) using the Living Image software (Perkin Elmer). Following in vivo whole-body imaging, the mice were euthanised, cardiac blood taken, and the tissues extracted for ex vivo imaging. Here each tissue was placed into individual wells of a 24-well imaging plate (black sided, Eppendorf) containing 0.3 mg/mL D-luciferin in PBS). The imaging plate was placed in the centre of imaging platform (Lumina II system) and signal was measured using the acquisition settings detailed above. Finally, the tissues were placed in storage vials and flash frozen in liquid nitrogen.
Mice were injected with a composition comprising DOTMA/DOPE, mRNA encoding luciferase and either G1,2,3-RL, (FIG. 10, top panel; the “G1,2,3-RL, lipid and mRNA formulation”) or G1,2-RL,3-LR (FIG. 10, bottom panel: the “G1,2,3-RL, lipid and mRNA formulation”). Each formulation was prepared and injected at an NP ratio of 8:1 and 0.15:1. Mice were prepared for detection of luciferase expression post injection.

immune cells = test: Immune cell targeting: uptake of labelled mRNA after intravenous injection (flow cytometry); type: in vivo, mice
Protocol: Fifteen 5-7-week-old female CD-1 mice (Charles River UK) were dosed with 1 mg/kg of either mRNA labelled with Alexa Fluor488 only or mRNA labelled with Alexa Fluor488 with NTX1 and DOTMA/DOPE or mRNA labelled with Alexa Fluor488 with G1,2-RL, 3-LR and DOTMA/DOPE or mRNA labelled with Alexa Fluor488 with G1,2-RL, 3-LR and DOTMA/DOPE, respectively, via intravenous injection using a dose volume of 5 ml/kg. Group 1 received vehicle and Group 5 received mRNA alone as controls. Mice in al groups were culled 2 hours post IV administration. At the time of euthanasia, whole blood, spleen, inguinal lymph nodes and femurs were collected from all mice. White Blood Cells (WBC) were obtained from EDTA treated whole blood, spleen, inguinal lymph nodes and bone marrow for flow cytometry analysis. In short, bone marrow (BM) was flushed from femurs, and spleens and lymph nodes were processed to single cell suspensions by passing them through a 70 μm filter. Red blood cells in blood, BM and spleen were lysed before isolated WBCs from all tissues were stained with different antibody panels to identify specific sub-populations of immune cells. The staining was performed in a 96-well plate format before samples were analysed using an ACEA Novocyte 3005 flow cytometer.

CN(C)CCCN1c2ccccc2Sc2ccc(Cl)cc21 [Chlorpromazine]
inhibition of transfection [1]: 80%

CC(C)C[C@H](NC(=O)[C@@H](N)CCCNC(=N)N)C(=O)NCCCC[C@H](NC(=O)[C@H](CC(C)C)NC(=O)[C@@H](N)CCCNC(=N)N)C(=O)NCC(=O)N[C@@H](CO)C(=O)N[C@@H](CS)C(N)=O [G1-RL, (RL)2KGSC-NH2] (HELM PEPTIDE1{R.L.K.G.S.C.[am]}|PEPTIDE2{R.L}$PEPTIDE1,PEPTIDE2,3:R3-2:R2$$$V2.0)
cell death (HeLa cells [2]): 40%

O=c1c(-c2ccc(O)cc2)coc2cc(O)cc(O)c12 [Genistein]
inhibition of transfection [1]: around 50%

CC(=O)c1c(O)c(C)c(O)c(Cc2c(O)c3c(c(C(=O)/C=C/c4ccccc4)c2O)OC(C)(C)C=C3)c1O [Rottlerin]
inhibition of transfection [1]: around 50%

ClC(Cl)(Cl)Cl [carbon tetrachloride]
AST and ALT threshold levels in disease model of liver damage ([3]; Bonnet et al 2008): greater than 7000 U/L

(LR)8(KLR)4(KLR)2KGSC-NH2 [G1,2,3-LR]
Polydispersity Index (PDI) ([4]; N:P 0.16:1): 0.168 | Zeta Potential ([4]; N:P 0.16:1): 43 mV | Polydispersity Index (PDI) ([4]; N:P 8:1): 0.272 | Zeta Potential ([4]; N:P 8:1): 60 mV | Hydrodynamic size ([4]; N:P 0.16:1): 121 nm | Hydrodynamic size ([4]; N:P 8:1): 83 nm | luciferase expression in tissues, DNA delivery (mice tissue [5]): the most effective delivery to skeletal muscle

(LR)8(KRL)4(KRL)2KGSCGAASSLNIA(Acp)-NH2 [NTX2]
luciferase expression after DNA transfection (C2C12 cells): further increase transfection efficiency

(LR)8(KRL)4(KRL)2KGSCGAASSLNIAXRXRRBRRXRRBRXB-NH2 [NTX1]
Polydispersity Index (PDI) ([4]; N:P 0.16:1): 0.13 | Zeta Potential ([4]; N:P 0.16:1): 37 mV | Hydrodynamic size ([4]; N:P 0.16:1): 128 nm | mRNA transfection efficiency (eGFP), in words (HeLa cells [6]): more effectively than G1,2-RL, 3-RL | luciferase expression in tissues, mRNA delivery (mice tissue [7]): improves efficiency of mRNA delivery to lung, spleen, and lymph nodes | luciferase expression in tissues, mRNA delivery (mice tissue [7]; listed as NXT1): more effective than G1,2,3-RL and G1,2-RL,3-LR | delivery of mRNA to immune cells (immune cells; blood, 2 hours post-injection): Delivery of mRNA to a wide range of immune cells present in the blood is possible | uptake of mRNA in immune cells (immune cells; bone marrow, 2 hrs post-injection): mediated uptake of mRNA in immune cells present in the bone marrow

KLKLKGSC-NH2 [G1-KL, (KL)2KGSC-NH2]
cell death (HeLa cells [2]): 40%

Lipopolysaccharides
TNF-alpha level ([3]; in vivo): up to 5000 μg/mL
